# Source: PubChem BioAssay (NCI)
#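 Cultured in 96-well plates, cells were exposed to test compound for 48 hours across five concentrations. GI50 is the concentration that inhibits growth by half. TGI denotes the concentration required for complete inhibition of growth.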
# Columns and labels:
# Test in all cases: growth of human tumour cells (NCI), 48 h
# HOP-62 NSCLC = test system: HOP-62 NSCLC
# HOP-92 NSCLC = test system: HOP-92 NSCLC
# HS 578T breast = test system: HS 578T breast
# K-562 leukemia = test system: K-562 leukemia
# LOX IMVI melanoma = test system: LOX IMVI melanoma
# OVCAR-8 ovarian = test system: OVCAR-8 ovarian
# SF-539 CNS = test system: SF-539 CNS
# SK-MEL-28 melanoma = test system: SK-MEL-28 melanoma
# SNB-75 CNS = test system: SNB-75 CNS
# T-47D breast = test system: T-47D breast
SMILES,GI50 (HOP-62 NSCLC) [µM],TGI (HOP-62 NSCLC) [µM],GI50 (HOP-92 NSCLC) [µM],TGI (HOP-92 NSCLC) [µM],GI50 (HS 578T breast) [µM],TGI (HS 578T breast) [µM],GI50 (K-562 leukemia) [µM],TGI (K-562 leukemia) [µM],GI50 (LOX IMVI melanoma) [µM],TGI (LOX IMVI melanoma) [µM],GI50 (OVCAR-8 ovarian) [µM],TGI (OVCAR-8 ovarian) [µM],GI50 (SF-539 CNS) [µM],TGI (SF-539 CNS) [µM],GI50 (SK-MEL-28 melanoma) [µM],TGI (SK-MEL-28 melanoma) [µM],GI50 (SNB-75 CNS) [µM],GI50 (T-47D breast) [µM],TGI (T-47D breast) [µM],TGI (SNB-75 CNS) [µM]
N#Cc1cccc(C2C3=C(COC3=O)N(CCO)c3cc4c(cc32)CCC4)c1 (stereo not drawn),0.25,> 50,0.871,35.3,0.141,> 13.5,0.0732,> 50,0.292,> 44.9,0.237,> 50,0.112,0.356,0.437,> 50,0.0393,0.271,> 50,–
O=[N+]([O-])c1ccc(/C=C\c2ccc3c(c2)OCO3)c([N+](=O)[O-])c1,–,69,–,53.5,–,38.5,–,50.2,–,27,–,45.5,–,39.1,–,32.3,–,–,> 100,31.5
CN(c1ccc(NC(=O)NCCN2CCOCC2)cc1)c1ccnc(Nc2ccc(CS(C)(=O)=O)cc2)n1,> 25,> 25,19.2,> 25,> 25,> 25,> 25,> 25,> 25,> 25,> 25,> 25,> 21.4,> 25,> 25,> 25,> 25,> 23.6,> 25,> 25
COc1cc2c3c(n(CCCN4CCSCC4)c(=O)c2cc1OC)-c1cc2c(cc1C3=O)OCO2,26.2,73.7,19.4,46.3,71.7,> 100,20.2,47.8,> 100,> 100,> 100,> 100,18.2,34.5,> 100,> 100,12.9,> 100,> 100,27.5
Cc1n(Cc2ccc3ccccc3n2)cc[n+]1Cc1ccc2ccccc2c1,1.79,7.36,0.355,3.06,1.18,9.72,0.422,12.9,1.05,3.77,1.29,11.2,0.579,8.76,0.975,7,0.322,0.371,7.22,3.39
CCN(CC)CCS(=O)(=O)CCNc1ccnc2cc(Cl)ccc12,4.99,> 100,0.619,7.39,4.07,> 100,0.96,> 49.8,0.982,5.85,2.54,> 27.3,2.93,14.3,4.97,25.7,2.07,6.23,48.8,> 29
CCc1ccc(C2=NN(c3ccc(S(C)(=O)=O)cc3)C(=O)CC2)cc1,2.68,> 30.8,1.86,23.7,0.977,7.77,0.488,> 100,2.93,> 100,2.87,> 81.8,2.3,11,1.59,> 100,1.31,4.44,98.1,6.93
Cc1cn2c(/C=C3/C(=O)Nc4ccc(C(=O)O)cc43)c(C)nc2s1,> 100,> 100,> 100,> 100,> 100,> 100,> 100,> 100,> 100,> 100,> 100,> 100,> 100,> 100,> 100,> 100,> 100,> 100,> 100,> 100
O=c1c2ccccc2n2cnc3ccc(NCCNCCO)c1c32,–,10.9,–,13.1,–,6.26,–,> 51.1,–,2.8,–,5.02,–,15.8,–,11,–,–,22.2,9.51
COc1cc(OC)c(/C=C/C(=O)c2c(N)cc(OC)cc2OC)c(OC)c1,0.724,> 100,17.6,> 94.8,2.42,> 82,0.305,> 100,0.537,> 100,0.712,> 100,0.365,> 25.2,2.18,> 100,0.338,0.478,> 100,–
C=CC[PH+](c1ccccc1)c1ccccc1.C=CC[PH+](c1ccccc1)c1ccccc1.[Pt+2].[S-]c1ncccn1.[S-]c1ncccn1,39.5,> 100,2.7,19.7,23,> 100,2.99,> 100,2.18,5.91,4.44,> 100,21.4,52.3,16.4,44.5,8.25,3.71,87.2,> 100
